# From patent US11998549B2, “Methods of treating a vascular leakage-associated disease or disorder” (UNITY HEALTH TORONTO, priority 2019, dated 2024)
# What was measured:
# Type in all cases: in vivo
# [1] = system: LPS induced zebrafish sepsis model; assay: Survival in LPS induced zebrafish sepsis model; conditions: comparison of UNC0642 and A366, zebrafish larvae, 27 μg/ml LPS, 24 h
# Procedure: (§1) An LPS induced zebrafish sepsis model which mimics the hallmarks of human sepsis was developed (Philip et al., 2017). Zebrafish show varied susceptibility and responsiveness to LPS from different bacterial strains. Exposure of zebrafish larvae at 3 days post-fertilization (dpf) to two types of LPS (LPS from Escherichia coli 0111:B4 (Sigma) at 100 μg/ml for 5-6 hrs; or LPS from Salmonella at 27 μg/ml for 24 hrs) were both effective in inducing tail fin swelling, increased ROS production, increased vascular leakage and increased mortality.
# Survival analyses for zebrafish (wildtype) exposed to various concentrations of LPS (Escherichia coli 0111:B4; Sigma) was performed. 3 dpf larvae were exposed to LPS by immersion technique. Larvae were treated with 10, 25, 50, 125, 250, 500, 1000, 2500, 5000 or 10000 nM UNC0642 along with 100 μg/ml LPS (LPS was dissolved in eggwater), by static immersion at 28.5° C. for 24 h in a total volume of 2 mL per treatment. Control larvae were exposed to egg water. Survival numbers were recorded and EC50s calculated.
# (§2) 3 dpf larvae were exposed to LPS by immersion technique. […] Control larvae were exposed to egg water. Survival numbers were recorded and EC50s calculated. The percentage (%) of embryos showing vascular leakage was also recorded and 1050s calculated.
# [2] = system: LPS-induced vascular leakage; assay: Vascular leakage (leaked red blood cells in tailfin) in LPS-treated zebrafish larvae; conditions: comparison of UNC0642 and A366, zebrafish larvae, 27 μg/ml LPS, 24 h
# Procedure: as §1
# 3 dpf Tg (flk1:GFP; gata-1:Dsred) double transgenic larvae were exposed to Vehicle, LPS (100 μg/ml) or LPS+1 μM UNC0642 by static immersion for 6 h at 28.5° C. to induce endothe-lial dysfunction and the resulting leakage of red blood cells. The larvae were then imaged using a Leica fluorescence microscope (Leica Microsystems, Wetzlar, Germany). Red blood cells that leaked out into the tailfin region were quantified.
# as §2
# zebrafish larvae = assay: Toxicity in zebrafish larvae; conditions: 3 dpf larvae, observed daily for 72 hours post incubation
# Excerpt: Parameters of developmental toxicity (organ size and shape), cardiac toxicity (cardiac edema and heart rate), neuromuscular toxicity (touch response) and finally death were investigated.
smiles,measurement,setting,value
"COc1cc2c(cc1OCCCN1CCCC1)N=C(N)C21CCC1 [A366, 5-Methoxy-6′-[3-(1-pyrrolidinyl)propoxy]spiro[cyclobutane-1,3′-[3H]indol]-2′-amine]",Rescue of sepsis-associated mortality,[1],able to rescue
same,Rescue of sepsis-associated vascular leakage,[2],able to rescue
same,Concentration below which non-toxic to zebrafish embryos,zebrafish larvae,below 2.5 mM
